From ChEMBL document CHEMBL1201862, “PubChem BioAssay data set” (2004)
The source made the active and inactive calls.

Assays:
H4 = assay: Luminescence Cell-Based Dose Response HTS to Identify Activators of 5'UTR Stem-Loop Driven Prion Protein mRNA Translation in H4 Neuroglioblastoma Cells. [Related pubchem assays: 1829 (Project Summary), 1814 (Primary HTS)]; type: functional; conditions: Homo sapiens
[1] = target: T1, Polyadenylate-binding protein 1 (Homo sapiens, UniProt P11940); assay: PABP1 MLLE–PAM2 interaction inhibitors, dose response, miRNA deadenylation inhibitor project, biochemical, fluorescence polarization, Cy5-PAM2 peptide, secondary (AID 602260); type: functional; conditions: read-out: IC50_Mean
T1 sequence (P11940 whole entry): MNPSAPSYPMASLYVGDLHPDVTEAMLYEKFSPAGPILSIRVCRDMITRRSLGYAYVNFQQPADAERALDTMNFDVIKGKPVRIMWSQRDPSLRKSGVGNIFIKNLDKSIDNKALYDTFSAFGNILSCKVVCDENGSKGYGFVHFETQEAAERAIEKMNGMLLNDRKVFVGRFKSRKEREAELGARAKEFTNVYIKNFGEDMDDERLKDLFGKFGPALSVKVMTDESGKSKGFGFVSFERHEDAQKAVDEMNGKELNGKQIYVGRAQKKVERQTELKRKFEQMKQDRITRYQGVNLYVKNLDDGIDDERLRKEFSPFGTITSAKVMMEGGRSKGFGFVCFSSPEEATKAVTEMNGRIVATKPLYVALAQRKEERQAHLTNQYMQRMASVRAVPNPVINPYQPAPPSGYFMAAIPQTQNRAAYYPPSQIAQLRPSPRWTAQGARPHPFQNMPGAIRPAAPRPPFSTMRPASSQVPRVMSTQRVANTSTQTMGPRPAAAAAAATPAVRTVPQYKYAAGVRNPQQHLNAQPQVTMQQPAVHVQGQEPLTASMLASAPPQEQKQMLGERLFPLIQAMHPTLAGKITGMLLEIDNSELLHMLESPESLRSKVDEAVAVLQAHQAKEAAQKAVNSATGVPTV

[2] = Luminescence Cell-Based Dose Response HTS to Identify Activators of Luciferase Translation or Activity in H4 […] Cells. [Related pubchem assays: 1829 (Project Summary), 1814 (Primary HTS)]; type: functional
[3] = Luminescence Cell-Based Dose Confirmation HTS to Identify Activators of 5'UTR Stem-Loop Driven Alpha-Synuclein mRNA Translation in H4 Neuroglioblastoma Cells. [Related pubchem assays: 1829 (Project Summary), 1814 (Primary HTS)]; type: functional
[4] = target: T1, Polyadenylate-binding protein 1; assay: PABP1 MLLE–PAM2 binding inhibitor potency, dose response, biochemical, fluorescence polarization, FITC-PAM2 peptide (AID 602259); type: functional; conditions: read-out: IC50_Mean
[5] = LGR2 antagonists, dose response, cell-based, HEK293, CRE-luciferase reporter, cherry pick, set 2 (AID 743343); type: functional;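 also: transfected cells were stimulated with diluted bursicon conditioned medium after compound addition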
[6] = MC4R antagonists, dose response, counter-screen for LGR2 antagonist project, cell-based, plate reader, cherry pick (AID 743444); type: functional;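 also: transfected HEK 293 cells stimulated with alpha-MSH peptide; potency of inhibitors of the alpha-MSH evoked signal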
[7] = A549 cell cytotoxicity, dose response, cytotoxicity control, plate reader, cherry-pick, antagonist series (AID 743412); type: functional, cell-based
[8] = HEK293 cell cytotoxicity, dose response, cytotoxicity control, plate reader, cherry-picked samples (AID 743446); type: functional, cell-based
[9] = HepG2 cell cytotoxicity, dose response, cytotoxicity control, plate reader, cherry-pick, antagonist series (AID 743416); type: functional, cell-based
Protein RecA = target: T2, Protein RecA (Mycobacterium tuberculosis, UniProt P9WHJ3); assay: Fluorescence Cell-Free Homogeneous Dose Retest to Identify Inhibitors of RecA-Intein Splicing Activity. [Related pubchem assays (depositor defined):AID2097, AID2223, AID489010, AID492950]; type: functional
T2 sequence (P9WHJ3 whole entry): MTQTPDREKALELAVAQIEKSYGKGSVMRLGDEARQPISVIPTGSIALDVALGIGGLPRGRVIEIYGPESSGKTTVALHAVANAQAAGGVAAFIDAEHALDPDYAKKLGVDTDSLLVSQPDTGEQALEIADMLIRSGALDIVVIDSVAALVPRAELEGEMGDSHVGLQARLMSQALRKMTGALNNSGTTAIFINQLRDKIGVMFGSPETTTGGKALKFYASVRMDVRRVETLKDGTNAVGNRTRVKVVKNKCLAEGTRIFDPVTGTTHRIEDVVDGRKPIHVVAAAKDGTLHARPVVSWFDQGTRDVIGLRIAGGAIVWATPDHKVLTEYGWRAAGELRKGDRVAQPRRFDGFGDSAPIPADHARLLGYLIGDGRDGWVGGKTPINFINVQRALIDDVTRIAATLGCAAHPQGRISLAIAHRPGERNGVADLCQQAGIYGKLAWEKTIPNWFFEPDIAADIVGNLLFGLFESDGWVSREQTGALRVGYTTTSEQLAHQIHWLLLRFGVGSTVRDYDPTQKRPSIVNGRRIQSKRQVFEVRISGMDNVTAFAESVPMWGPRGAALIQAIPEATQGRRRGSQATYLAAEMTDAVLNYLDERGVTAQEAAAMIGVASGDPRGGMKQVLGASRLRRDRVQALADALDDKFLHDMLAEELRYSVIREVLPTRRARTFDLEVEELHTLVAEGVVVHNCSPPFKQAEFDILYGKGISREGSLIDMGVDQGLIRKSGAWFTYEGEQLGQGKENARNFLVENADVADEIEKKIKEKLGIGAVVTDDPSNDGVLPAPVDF

[10] = target: T3, Replicative DNA helicase DnaB (Mycobacterium tuberculosis, UniProt P9WMR3); assay: DnaB intein splicing inhibitors, dose response, biochemical, cell-free fluorescence (AID 449749); type: functional
T3 sequence (P9WMR3 whole entry): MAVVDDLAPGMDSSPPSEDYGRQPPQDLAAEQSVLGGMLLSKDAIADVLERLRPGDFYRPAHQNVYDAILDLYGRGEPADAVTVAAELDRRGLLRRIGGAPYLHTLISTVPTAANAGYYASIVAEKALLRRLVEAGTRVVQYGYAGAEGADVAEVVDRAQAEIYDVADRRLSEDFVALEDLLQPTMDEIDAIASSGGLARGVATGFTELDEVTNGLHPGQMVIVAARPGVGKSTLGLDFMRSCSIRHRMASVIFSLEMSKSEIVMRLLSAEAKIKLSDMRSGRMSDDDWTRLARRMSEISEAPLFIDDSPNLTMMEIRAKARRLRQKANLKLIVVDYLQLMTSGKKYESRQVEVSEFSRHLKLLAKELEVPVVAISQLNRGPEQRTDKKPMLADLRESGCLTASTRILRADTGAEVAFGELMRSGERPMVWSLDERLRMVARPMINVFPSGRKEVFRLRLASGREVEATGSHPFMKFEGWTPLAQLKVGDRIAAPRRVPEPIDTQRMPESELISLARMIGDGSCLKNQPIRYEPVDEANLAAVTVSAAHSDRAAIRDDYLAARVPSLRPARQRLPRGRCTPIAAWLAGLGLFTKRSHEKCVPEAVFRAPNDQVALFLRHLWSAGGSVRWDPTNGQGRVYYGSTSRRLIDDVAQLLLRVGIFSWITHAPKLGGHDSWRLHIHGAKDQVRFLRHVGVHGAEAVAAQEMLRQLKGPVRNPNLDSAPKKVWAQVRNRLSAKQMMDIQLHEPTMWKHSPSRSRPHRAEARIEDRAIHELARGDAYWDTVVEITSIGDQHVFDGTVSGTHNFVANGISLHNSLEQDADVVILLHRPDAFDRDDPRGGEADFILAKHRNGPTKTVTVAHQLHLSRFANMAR

[11] = NIH-3T3 fibroblast cytotoxicity, dose response, cytotoxicity control, cell-based, fluorescence, Alamar Blue, secondary assay (AID 2327); type: functional;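 also: NIH-3T3 mouse fibroblasts cultured with fluconazole at 8 µg/mL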
[12] = C. albicans growth with fluconazole, confirmation, fluorescence, retest (AID 2467); type: functional, cell-based
[13] = Luminescence Cell-Based Dose Response HTS to Identify Inhibitors of 5'UTR Stem-Loop Driven Prion Protein mRNA Translation in H4 Neuroglioblastoma Cells. [Related pubchem assays: 1827 (Project Summary), 1813 (Primary HTS)]; type: functional
[14] = inhibitors of SNCA 5'UTR-driven reporter translation, confirmation, H4 neuroglioma cells, luminescence (AID 1988); type: functional, cell-based
[15] = inhibitors of firefly luciferase expression or activity, dose response, H4 neuroglioma cells, luminescence (AID 1990); type: functional, cell-based
[16] = inhibitors of intracellular T. cruzi replication, confirmation, NIH3T3 host cells, beta-gal luminescence (AID 2044); type: functional, cell-based;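 also: intracellular parasites grown in NIH/3T3 mouse fibroblasts as host cells; luminescent beta-galactosidase reporter signal from transgenic T. cruzi replicating inside host cells; inhibitors lower the luminescence signal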
[17] = cytotoxicity toward NIH3T3 fibroblasts, dose response, counter-screen, cell-based, ATP luminescence, mouse fibroblasts (AID 2010); type: functional;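 also: cells exposed to compound for about 90 hours before reading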
[18] = HEp-2 cell cytotoxicity, dose response, cytotoxicity control for RSV inhibitor project, HTS (AID 2410); type: functional; conditions: human respiratory syncytial virus
Coagulation factor XII = target: T4, Coagulation factor XII (Homo sapiens, UniProt P00748); type: functional;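 also: activated factor XIIa alpha cleaving a fluorogenic AMC peptide substrate; inhibitor potency from loss of enzyme activity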
T4 sequence (P00748 whole entry): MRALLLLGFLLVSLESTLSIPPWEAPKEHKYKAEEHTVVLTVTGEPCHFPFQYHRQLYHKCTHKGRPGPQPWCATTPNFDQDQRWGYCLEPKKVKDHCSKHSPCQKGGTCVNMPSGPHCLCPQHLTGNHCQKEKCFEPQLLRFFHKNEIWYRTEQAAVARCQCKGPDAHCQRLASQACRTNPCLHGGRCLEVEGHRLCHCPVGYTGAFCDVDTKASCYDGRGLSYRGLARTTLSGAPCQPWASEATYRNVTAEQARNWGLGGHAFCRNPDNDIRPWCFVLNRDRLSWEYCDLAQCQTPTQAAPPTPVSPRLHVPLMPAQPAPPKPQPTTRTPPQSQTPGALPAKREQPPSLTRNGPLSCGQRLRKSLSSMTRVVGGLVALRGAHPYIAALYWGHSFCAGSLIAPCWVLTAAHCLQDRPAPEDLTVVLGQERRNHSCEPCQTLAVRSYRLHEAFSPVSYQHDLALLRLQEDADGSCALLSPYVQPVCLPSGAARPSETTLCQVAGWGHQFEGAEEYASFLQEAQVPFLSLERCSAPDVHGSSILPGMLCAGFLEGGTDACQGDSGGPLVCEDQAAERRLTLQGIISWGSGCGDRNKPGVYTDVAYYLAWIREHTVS

H9c2 = assay: cells; type: functional, cell-based; conditions: Rattus norvegicus, H9c2, Myocardium;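 also: confirmatory concentration-response retest of ultra-high-throughput screening hits for modulation of myocardial damage; cell death induced by hydrogen peroxide oxidative stress; compound pretreatment for 60 min then peroxide exposure for 2 h; potency is for protecting the cells against peroxide damage rather than for killing them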

Question: For `O=C(CC(SCCO)c1ccc2c(c1)OCO2)c1cccs1` (stereo not drawn), which EC50 (H4) is on record?
Answer: Its EC50 is 9.36 µM (active).

Question: And the IC50 [1]?
Answer: The IC50 was > 66 µM (inactive).

Question: And the EC50 [2]?
Answer: Its EC50 is 119 µM (active).

Question: What about the EC50 [3] of the same molecule?
Answer: The EC50 was 3.91 µM (active).

Question: What about the IC50 [4] of the same molecule?
Answer: The IC50 was > 66 µM (inactive).

Question: With `Cc1ccc(C(=O)Nc2ccc3c(c2)OCCO3)c(C)c1` as the molecule, how does the AC50 [5] read?
Answer: Its AC50 is 2.74 µM (active).

Question: And the AC50 [6]?
Answer: The AC50 was 2.42 µM (active).

Question: What about the AC50 [7] of the same molecule?
Answer: Its AC50 is 44.6 µM (active).

Question: And the AC50 [8]?
Answer: Its AC50 is > 52 µM (inactive).

Question: What about the AC50 [9] of the same molecule?
Answer: Its AC50 is > 52 µM (inactive).

Question: What does the source list for `O=c1c(Cl)c(NCCCO)cnn1-c1nc2ccccc2[nH]1`?
Answer: EC50 (Protein RecA): 7.41 µM (active); EC50 (H4): 88 µM (active); AC50 [10]: > 380 µM (inactive); EC50 [11]: 9.04 µM (inconclusive); EC50 [12]: 3.47 µM (active); EC50 [3]: 25.2 µM (active)

Question: For `[O-][n+]1c2c([n+]([O-])c3c1CCCC3)CCCC2`, which EC50 [13] is on record?
Answer: Its EC50 is > 120 µM (not active).

Question: What about the EC50 [14] of the same molecule?
Answer: Its EC50 is > 120 µM (not active).

Question: What about the EC50 [15] of the same molecule?
Answer: Its EC50 is > 120 µM (not active).

Question: What does the source list for `O=C(NC(=O)c1csnn1)Nc1ccccc1Cl`?
Answer: EC50 (H4): > 60 µM (not active); EC50 [2]: 94 µM (active); EC50 [3]: 5.61 µM (active)

Question: Which EC50 [13] does the source give for `O=[N+]([O-])c1nn(-c2ccccc2)[n+]([O-])c1NC1CCN(Cc2ccccc2)CC1` here?
Answer: Its EC50 is > 120 µM (not active).

Question: What about the EC50 [14] of the same molecule?
Answer: Its EC50 is 10.9 µM (active).

Question: And the EC50 [16]?
Answer: The EC50 was 0.25 µM (active).

Question: And the EC50 [17]?
Answer: The EC50 was > 60 µM (not active).

Question: And the EC50 [15]?
Answer: The EC50 was 14 µM (active).

Question: For `O=C(COc1ccc2c(c1)OCO2)Nc1nccs1`, which AC50 [5] is on record?
Answer: Its AC50 is 7.13 µM (active).

Question: What about the AC50 [6] of the same molecule?
Answer: The AC50 was 10.2 µM (active).

Question: And the AC50 [7]?
Answer: The AC50 was > 52 µM (inactive).

Question: And the AC50 [8]?
Answer: The AC50 was 20.6 µM (active).

Question: What about the AC50 [9] of the same molecule?
Answer: Its AC50 is > 52 µM (inactive).

Question: For `COc1cc(OC)cc(C(=O)NCC(=O)Nc2ccc(-c3ccccc3)cc2)c1`, which EC50 (H4) is on record?
Answer: Its EC50 is 9.12 µM (active).

Question: What about the EC50 [2] of the same molecule?
Answer: Its EC50 is 55.6 µM (active).

Question: What about the EC50 [3] of the same molecule?
Answer: The EC50 was > 60 µM (not active).

Question: Which CC50 [18] does the source give for `Cn1nnnc1Sc1ncnc2scc(-c3ccccc3C(F)(F)F)c12` here?
Answer: Its CC50 is 7.66 µM (active).

Question: What about the AC50 [7] of the same molecule?
Answer: Its AC50 is 20.7 µM (active).

Question: And the AC50 [8]?
Answer: The AC50 was 27.9 µM (active).

Question: Which IC50 (Coagulation factor XII) does the source give for `CCn1c(O)cc(=O)nc1SCC(=O)N1CCCCC1` here?
Answer: Its IC50 is > 50 µM (inactive).

Question: What does the source list for `CCOC(=O)c1nn(-c2ccc3c(c2)OCO3)cc1O`?
Answer: EC50 (H4): 23.9 µM (active); EC50 [2]: 15.7 µM (active); EC50 [3]: 16.6 µM (active)

Question: Which IC50 (H9c2) does the source give for `Cn1c(=O)[nH]c(=O)c2c1nc(N(CCO)Cc1ccccc1)n2CCCc1ccccc1` here?
Answer: Its IC50 is 13.8 µM (active).
